Results taken from ChEMBL document CHEMBL1926581, “Cyclic ether-containing macrolactins, antimicrobial 24-membered isomeric macrolactones from a marine Bacillus sp” (2011).
Converted amounts (≈) assume the structure as drawn.

Key:
Type in all cases: functional
Saccharomyces cerevisiae = assay: Antifungal activity against Saccharomyces cerevisiae KCTC 7913 after 48 hrs by broth microdilution method; conditions: KCTC 7913, 48 h
Bacillus subtilis = assay: Antibacterial activity against Bacillus subtilis KCTC 1021 after 24 hrs by broth microdilution method; conditions: KCTC 1021, 24 h
Escherichia coli = assay: Antibacterial activity against Escherichia coli KCTC 1923 after 24 hrs by broth microdilution method; conditions: KCTC 1923, 24 h

| MIC (Saccharomyces cerevisiae) [µM] | MIC (Bacillus subtilis) [µM] | MIC (Escherichia coli) [µM] | Compound |
| --- | --- | --- | --- |
| 0.02 (≈ 0.00837 µg/mL) | 0.16 (≈ 0.067 µg/mL) | 0.16 (≈ 0.067 µg/mL) | C[C@@H]1CCC[C@@H]2O[C@H]2/C=C/[C@H](O)C[C@@H](O)C/C=C\C=C\[C@@H](O)C/C=C/C=C\C(=O)O1 |
| 0.16 (≈ 0.067 µg/mL) | 0.16 (≈ 0.067 µg/mL) | 0.16 (≈ 0.067 µg/mL) | C[C@@H]1CCC/C=C/[C@@H]2O[C@@H](C/C=C\C=C\[C@@H](O)C/C=C/C=C\C(=O)O1)C[C@@H](O)[C@H]2O |
| 0.16 (≈ 0.067 µg/mL) | 0.16 (≈ 0.067 µg/mL) | 0.16 (≈ 0.067 µg/mL) | C[C@@H]1CCC/C=C/[C@@H]2O[C@H](C[C@@H](O)C/C=C\C=C\[C@@H](O)C/C=C/C=C\C(=O)O1)[C@H]2O |
